# Measured values from US5013722A, “Cholecystokinin analogs for controlling appetite” (Hoffmann-LaRoche Inc., priority 1989, dated 1991).
# Where a SMILES comes first, the peptide text is derived from it. [ ]: non-standard residue; d: D form. The star is where a group is joined. Thr(SO3H) = C[C@@H](OS(=O)(=O)O)[C@H](N)C(=O)O; sY = N[C@@H](Cc1ccc(OS(=O)(=O)O)cc1)C(=O)O; N(CH2CH2NHAc)Gly = CC(=O)NCCNCC(=O)O; NMeF = CN[C@@H](Cc1ccccc1)C(=O)O; Nle = CCCC[C@H](N)C(=O)O; For = O=C*
# Experiments:
# [1] = biological target: T1, receptors in bovine striatum (3H-CCK-8-(SO3 H) binding, central receptor) (Bos taurus, UniProt P79266); assay: In vitro receptor binding assay, bovine striatum homogenate, 3H-CCK-8-(SO3H) radioligand; settings: 0.15 nM radioligand, 30 min, 25° C.; read-out: Bovine Striatum IC50 (inhibition of specific 3H-CCK-8-(SO3H) binding)
# T1 construct: receptors in homogenized preparations of rat pancreatic cells and bovine striata; from tissue; host or cells: bovine striatum homogenate (48,000 x g pellet)
# T1 sequence (P79266 1-454): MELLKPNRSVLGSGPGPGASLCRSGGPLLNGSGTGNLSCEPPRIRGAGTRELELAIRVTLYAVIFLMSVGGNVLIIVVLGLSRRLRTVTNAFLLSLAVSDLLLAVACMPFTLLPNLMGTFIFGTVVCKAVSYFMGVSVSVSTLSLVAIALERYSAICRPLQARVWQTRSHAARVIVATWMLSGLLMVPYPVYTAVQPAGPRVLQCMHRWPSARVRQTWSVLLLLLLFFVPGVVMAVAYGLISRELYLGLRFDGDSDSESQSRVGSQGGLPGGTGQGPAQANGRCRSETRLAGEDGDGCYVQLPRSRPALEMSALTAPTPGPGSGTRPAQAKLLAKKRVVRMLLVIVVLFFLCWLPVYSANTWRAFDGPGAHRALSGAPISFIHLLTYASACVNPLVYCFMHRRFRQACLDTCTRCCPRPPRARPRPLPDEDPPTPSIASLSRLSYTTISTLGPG
# Procedure: Frozen bovine striatum (approx. 5 g) and fresh rat pancreas (approx. 5 g) cleaned of fat and extraneous tissue were homogenized in HEPES buffer #1 (10 mM HEPES+130 mM NaCl+5 mM MgCl2. pH 7.4) using 35 parts buffer per 1 part tissue on a wet weight/volume basis (approx. 175 ml). The tissue was homogenized 2 x for approx. 15 sec. at 0° C. using a Polytron homogenizer at a setting of 6. The tissue was isolated by centrifugation at 48,000 x g for 10 min. at 0° C. The resulting tissue pellet was resuspended in HEPES buffer #2 (10 mM HEPES+130 mM NaCl+5 mM MgCl2 +1 mg/L phenylmethanesulfonyl fluoride (PMSF)+200 mg/L Bacitracin): 1 part striatal tissue (original wet weight) per 80 parts buffer and 1 part pancreas tissue (original wet weight) per 70 parts buffer.
# Incubation was initiated by combining various concentrations of native CCK-8 or peptides of formula I, II and III with ^3 H-CCK-8-(SO3 H) (final conc.=0.15 nM) and tissue homogenate (striatum 0.26 mg protein in 2 ml final volume; pancreas 0.165 mg protein in 1 ml final volume). Samples were incubated for 30 min. at 25° C. and the incubation terminated by pouring the mixture onto a pre-wet Whatman GF/B filter on a Sandbeck Vacuum Filtration Manifold. The incubation tubes were washed with 2×3 ml of ice-cold HEPES Buffer #2 and the wash filtered through the GF/B filter. The filter was air dried for 10 min. and then placed in a scintillation vial with 12 ml of Beckman HP/b Ready-Solv scintillation cocktail. The vials were shaken for 2 hours and then counted using a Beckman Model 7800 liquid scintillation spectrometer. Non-specific binding was determined in the presence of 1 micromole native CCK-8 and subtracted from all samples to determine specific binding. The concentration of ^3 peptide necessary to inhibit 50% of total specific H-CCK-8-(SO3 H) binding (IC50 value) was determined by log-probit analysis.
# [2] = biological target: T2, receptors in rat pancreas (3H-CCK-8-(SO3 H) binding) (Rattus norvegicus, UniProt P30551); assay: In vitro receptor binding assay, rat pancreas homogenate, 3H-CCK-8-(SO3H) radioligand; settings: 0.15 nM radioligand, 30 min, 25° C.; read-out: Rat Pancreas IC50 (inhibition of specific 3H-CCK-8-(SO3H) binding)
# T2 construct: receptors in homogenized preparations of rat pancreatic cells and bovine striata; from tissue; host or cells: rat pancreas homogenate (48,000 x g pellet)
# T2 sequence (P30551 1-444): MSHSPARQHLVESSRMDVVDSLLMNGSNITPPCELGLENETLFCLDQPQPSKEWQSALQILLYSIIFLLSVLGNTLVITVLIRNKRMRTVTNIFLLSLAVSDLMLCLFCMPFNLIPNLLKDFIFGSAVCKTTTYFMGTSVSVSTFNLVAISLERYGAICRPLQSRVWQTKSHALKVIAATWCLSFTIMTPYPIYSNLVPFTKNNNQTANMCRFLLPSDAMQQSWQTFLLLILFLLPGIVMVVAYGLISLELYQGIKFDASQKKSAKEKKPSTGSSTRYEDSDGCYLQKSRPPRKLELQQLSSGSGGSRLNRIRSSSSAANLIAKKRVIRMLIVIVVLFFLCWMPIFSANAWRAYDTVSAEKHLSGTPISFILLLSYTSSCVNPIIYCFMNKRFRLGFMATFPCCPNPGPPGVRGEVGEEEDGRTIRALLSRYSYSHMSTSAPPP
# Procedure: This strategy was utilized to minimize central nervous system side effects by identifying peptides with peripheral receptor selectivity. […] The tissue was homogenized 2 x for approx. 15 sec. at 0° C. using a Polytron homogenizer at a setting of 6. The tissue was isolated by centrifugation at 48,000 x g for 10 min. at 0° C. […] Samples were incubated for 30 min. at 25° C. and the incubation terminated by pouring the mixture onto a pre-wet Whatman GF/B filter on a Sandbeck Vacuum Filtration Manifold. The incubation tubes were washed with 2×3 ml of ice-cold HEPES Buffer #2 and the wash filtered through the GF/B filter. The filter was air dried for 10 min. and then placed in a scintillation vial with 12 ml of Beckman HP/b Ready-Solv scintillation cocktail. The vials were shaken for 2 hours and then counted using a Beckman Model 7800 liquid scintillation spectrometer.
# [3] = tested on: Male Sprague-Dawley (CD) rats, food intake; assay: Two-meal feeding assay, intraperitoneal administration; assay type: in vivo, rat
# Procedure: Male Sprague-Dawley (CD) rats weighing 180-200 grams (Charles River Breeding Laboratories) were acclimated to a 12 h light/dark cycle (6 a.m. to 6 p.m.) in a room kept at 22° C. They were subsequently fasted for two days, weighed, placed in individual cages, and a four-day period of meal training was begun. During this time the rats were given ground laboratory chow (Purina Lab Chow) in jars for one hour from 9:00 a.m. until 10:00 a.m., the jars were removed from 10:00 a.m. to 12:00 p.m., and placed back in the cages from 12:00 until 1:00 p.m. Under this `1-2-1` meal feeding regime most rats learn to eat approximately as much Per day during the two hours they have access to food as rats which have food ad libitum over the entire 24-hour day. On the fourth day, the rats were weighed again, and any which lost more than five grams body weight were excluded from the test. The animals were then distributed into experimental (n=5 to 6) and control groups (n=6-12). but not matched for body weight.
# Peptides of the invention were suspended either in saline. if soluble, or in 1% gum arabic, if insoluble, at concentrations of 0 to 320 μg/ml/kg body weight and were administered intraperitonerally 15 min before the first meal on day 5 of meal feeding. The rats were then given their meals as they had been during the previous four days, and the food cups were weighed both before and after each meal to determine food consumption. Food intake was expressed as a mean and standard error of the mean in grams consumed or as a percent of control values for the various groups. The treated groups were compared to the control groups by t-test analysis. […]
# [4] = 32 microgm/Kg i.p., 15 min before first meal, mean ± SEM
SMILES,IC50 [1] [nM],IC50 [2] [nM],"Food Intake 1st Meal [3, 4]","Food Intake 2nd Meal ([3]; 32 microgm/Kg i.p., mean ± SEM)",other results
"CSCC[C@H](NC(=O)[C@H](Cc1ccc(OS(=O)(=O)O)cc1)NC(C)=O)C(=O)NCC(=O)N[C@@H](Cc1cn(C=O)c2ccccc12)C(=O)N[C@@H](CCSC)C(=O)N[C@H](C(=O)N(C)[C@@H](Cc1ccccc1)C(N)=O)[C@@H](C)OS(=O)(=O)O [Example 1, Ac-Tyr(SO3 H)-Met-Gly-Trp(For)-Met-Thr(SO3 H)-N-methyl-Phe-NH2] (Ac-[sY]MGW(For)M[Thr(SO3H)][NMeF]-NH2)",1000,9.4,23 ± 13 % of Control,55 ± 10 % of Control,–
"CCCC[C@H](NC(=O)[C@H](Cc1ccc(OS(=O)(=O)O)cc1)NC(C)=O)C(=O)NCC(=O)N[C@@H](Cc1c[nH]c2ccccc12)C(=O)N[C@@H](CCCC)C(=O)N[C@H](C(=O)N(C)[C@@H](Cc1ccccc1)C(N)=O)[C@@H](C)OS(=O)(=O)O [Example 13, Ac-Tyr-(SO3 H)-Nle-Gly-Trp-Nle-Thr(SO3 H)-N-methyl-Phe-NH2] (Ac-[sY][Nle]GW[Nle][Thr(SO3H)][NMeF]-NH2)",–,–,21 ± 12 % of Control,52 ± 13 % of Control,Food Intake 1st Meal ([3]; 1 microgm/Kg i.p.): 36 ± 4 % of Control; Food Intake 2nd Meal ([3]; 1 microgm/Kg i.p.): 71 ± 13 % of Control; Food Intake 1st Meal ([3]; 3 microgm/Kg i.p.): 23 ± 13 % of Control; Food Intake 2nd Meal ([3]; 3 microgm/Kg i.p.): 59 ± 6 % of Control; Food Intake 1st Meal ([3]; 10 microgm/Kg i.p.): 13 ± 1 % of Control; Food Intake 2nd Meal ([3]; 10 microgm/Kg i.p.): 62 ± 8 % of Control; Food Intake 1st Meal ([3]; 16 microgm/Kg i.p.): 27 ± 17 % of Control; Food Intake 2nd Meal ([3]; 16 microgm/Kg i.p.): 45 ± 11 % of Control
"CCCC[C@H](NC(=O)[C@H](Cc1ccc(OS(=O)(=O)O)cc1)NC(C)=O)C(=O)N[C@H](C)C(=O)N[C@@H](Cc1c[nH]c2ccccc12)C(=O)N[C@@H](CCSC)C(=O)N[C@H](C(=O)N(C)[C@@H](Cc1ccccc1)C(N)=O)[C@@H](C)OS(=O)(=O)O [Example 4, Ac-Tyr(SO3 H)-Nle-(D)Ala-Trp-Met-Thr(SO3 H)-n-Methyl-Phe-NH2] (Ac-[sY][Nle][dA]WM[Thr(SO3H)][NMeF]-NH2)",100,44,5 ± 5 % of Control,79 ± 13 % of Control,–
"CSCC[C@H](NC(=O)[C@H](Cc1ccc(OS(=O)(=O)O)cc1)NC(C)=O)C(=O)N[C@@H](C)C(=O)N[C@@H](Cc1c[nH]c2ccccc12)C(=O)N[C@@H](CCSC)C(=O)N[C@H](C(=O)N(C)[C@@H](Cc1ccccc1)C(N)=O)[C@@H](C)OS(=O)(=O)O [Example 6, Ac-Tyr(SO3 H)-Met-Ala-Trp-Met-Thr(SO3 H)-N-methyl-Phe-NH2] (Ac-[sY]MAWM[Thr(SO3H)][NMeF]-NH2)",1750,100,14 ± 6 % of Control,114 ± 9 % of Control,–
"CSCC[C@H](NC(=O)[C@H](Cc1ccc(OS(=O)(=O)O)cc1)NC(=O)CNCCNC(C)=O)C(=O)NCC(=O)N[C@@H](Cc1cn(C=O)c2ccccc12)C(=O)N[C@@H](CCSC)C(=O)N[C@H](C(=O)N(C)[C@@H](Cc1ccccc1)C(N)=O)[C@@H](C)OS(=O)(=O)O [Example 7, Ac-Aeg-Tyr(SO3 H)-Met-Gly-Trp(For)-Met-Thr(SO3 H)-N-methyl-Phe-NH2] (H-[N(CH2CH2NHAc)Gly][sY]MGW(For)M[Thr(SO3H)][NMeF]-NH2)",–,–,17 ± 9 % of Control,95 ± 16 % of Control,–
"CSCC[C@H](NC(=O)[C@H](Cc1c[nH]c2ccccc12)NC(=O)CNC(=O)[C@H](Cc1ccc(OS(=O)(=O)O)cc1)NC(C)=O)C(=O)N[C@H](C(=O)N(C)[C@@H](Cc1ccccc1)C(N)=O)[C@@H](C)OS(=O)(=O)O [Example 14, Ac-Tyr(SO3 H)-Gly-Trp-Met-Thr(SO3 H)-N-methyl-Phe-NH2] (Ac-[sY]GWM[Thr(SO3H)][NMeF]-NH2)",–,–,36 ± 8 % of Control,141 ± 9 % of Control,Food Intake 1st Meal ([3]; 3 microgm/Kg i.p.): 86 ± 16 % of Control; Food Intake 2nd Meal ([3]; 3 microgm/Kg i.p.): 120 % of Control; Food Intake 1st Meal ([3]; 320 microgm/Kg i.p.): 4 ± 5 % of Control; Food Intake 2nd Meal ([3]; 320 microgm/Kg i.p.): 121 ± 3 % of Control
"CSCC[C@H](NC(=O)[C@H](Cc1ccc(OS(=O)(=O)O)cc1)NC(C)=O)C(=O)N[C@@H](C)C(=O)N[C@@H](Cc1cn(C=O)c2ccccc12)C(=O)N[C@@H](CCSC)C(=O)N[C@H](C(=O)N(C)[C@@H](Cc1ccccc1)C(N)=O)[C@@H](C)OS(=O)(=O)O [Example 5, Ac-Tyr(SO3 H)-Met-Ala-Trp(For)-Met-Thr(SO3 H)-N-methyl-Phe-NH2] (Ac-[sY]MAW(For)M[Thr(SO3H)][NMeF]-NH2)",4100,4200,70 ± 2 % of Control,133 ± 9 % of Control,–
